Consider 1 molecule from patent US20250214978A1, “AT2R AGONIST” (WUHAN HUMANWELL INNOVATIVE DRUG RESEARCH AND DEVELOPMENT …, priority 2022, published 2025).

Structures are written as SMILES. pIC50: −log10 of the molar value. Read-outs that look alike come from different tables or passages of the source.

Data set [1] in a line: Free plasma protein binding (PPB) assay, equilibrium dialysis. It is filed as in vitro ADME. The conditions noted are these: dialysis 6 hours at 37° C. How it is done: The dried dialysis membrane was soaked in ultrapure water for 1 hour, then soaked in 20% ethanol for 20 minutes, and then rinsed with ultrapure water for 2 to 3 times. Finally, the dried dialysis membrane was soaked in ultrapure water for 20 minutes for later use. The frozen plasma was thawed in a water bath at 37° C. for about 20 minutes. pH value of the plasma was measured after thawing was complete, and was adjusted to 7.4 with 1% phosphoric acid solution or 0.1M sodium hydroxide solution. […] The pretreated dialysis membrane was assembled into the dialysis plate according to product instructions, and 100 μL of receiving solution (100 mM phosphate buffer solution plus 0.002% Tween 80) was added to one side of the permeable membrane in each dialysis well. 20 μL of each of the final solution of the test compound and the final solution of the control compound were taken in a 96-well sample plate, two duplicate samples were made, and T0 sample was obtained, which was stored in a −20° C. refrigerator. Another 100 μL of each of the above-mentioned final solutions were taken to the other side of the membrane in the dialysis device, two duplicate samples were made, and incubated at 37° C. with constant shaking for 6 hours. After 6 hours of incubation, 20 μL of each of the dialyzed receiving solution and the administered plasma were taken, two duplicate samples were made, and sample A and sample B were obtained. Corresponding blank plasma or receiving solution of corresponding volume were added to sample B and sample A, respectively, allowing the volume ratio of plasma to buffer in each sample well to be 1:1. 300 μL of sample-containing internal standard acetonitrile solution was added to all the sample wells. The mixture was mixed well, and centrifuged at 5,500×g for 10 minutes. 150 μL of corresponding ultrapure water was added to the corresponding sample wells of the 96-well sample plate. 150 μL of the supernatant was taken into the sample wells, and mixed well. Then, LC/MS/MS analysis was performed. The calculation formula of fu is: […]
where: CR: peak area ratio measured in the receiving chamber well CD: peak area ratio measured in the supply chamber well.

Another data set has as its target AT2R (Homo sapiens (Human), UniProt P50052). Kind of data set: Binding assay of compounds to AT2R (Tag-lite HTRF ligand binding kit). Particulars: 1 hour incubation at room temperature. How it is done: The assay was performed in accordance with the instruction manual of Angiotensin AT2 Receptor Ligand Binding Assay Kit (#C1TT1AT2, Cisbio). First, a compound stock solution (10 mM) was diluted in a gradient at a 5× dilution ratio (including 10 concentrations, each with two replicates). 160 nL of compounds at different concentrations was added to a 384-well plate. 40 μL of 1×TLB was added to each well, and the mixture was shaken at room temperature for 15 minutes. 15 mL centrifuge tube added with 5 mL of 1×TLB was prepared in advance. The frozen labeled cells were thawed in a water bath at 37° C. (for 1 to 2 minutes), and the thawed cells were quickly transferred to the above 15 mL centrifuge tube. The mixture was mixed well and centrifuged at 1,000 g at room temperature for 5 minutes. The supernatant was removed, and the cells were resuspended by adding 2.7 mL 1×TLB. A new 384-well plate was taken, and 10 μL of mixed cells were added into the corresponding wells according to the assay design. 5 μL of 4× compound solution and 5 μL of 4× Tag-lite red fluorescent labeled ligand were added to each well. After incubation at room temperature for 1 hour, data were read using EnVision with an HTRF mode. The excitation light intensities at 665 nM and 615 nM in each well were read respectively, and the ratio was calculated (Ratio=A665nMIB615 nM). The IC50 value was calculated by means of GraphPad Prism8 software, where X represents logarithmic value of compound concentration; and Y represents ratio of A665 nM/B615 nM.

Sequence of AT2R (P50052 whole entry): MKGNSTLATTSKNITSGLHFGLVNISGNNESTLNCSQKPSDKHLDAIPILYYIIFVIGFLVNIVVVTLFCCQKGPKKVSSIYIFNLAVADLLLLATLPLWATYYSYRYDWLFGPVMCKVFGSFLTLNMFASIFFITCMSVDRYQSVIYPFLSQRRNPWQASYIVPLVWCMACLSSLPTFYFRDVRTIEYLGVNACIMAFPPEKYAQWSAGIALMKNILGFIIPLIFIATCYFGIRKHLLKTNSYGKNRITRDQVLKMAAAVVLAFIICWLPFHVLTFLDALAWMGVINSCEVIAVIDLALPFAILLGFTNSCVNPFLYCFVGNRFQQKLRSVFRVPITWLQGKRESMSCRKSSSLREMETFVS

With `COC(=O)NS(=O)(=O)c1sc(CC(C)C)c(C)c1-c1ccc(Cn2ccnc2Cl)cc1` [Compound I-34, Methyl ((3-(4-((2-chloro-1H-imidazol-1-yl)methyl)phenyl)-5-isobutyl-4-methylthiophen-2-yl)sulfonyl)carbamate], the fraction unbound at 6 h, 1 μM worked out at 0.0141 in data set [1] (dog, pH 7.4, Canine plasma, read-out: fu % Canine); 0.008 in data set [1] (pH 7.4, Human plasma, read-out: fu % Human); 0.0093 in data set [1] (pH 7.4, Mouse plasma, read-out: fu % Mouse); 0.0289 in data set [1] (pH 7.4, Rat plasma, read-out: fu % Rat). The negative logarithm of the IC50 (pIC50) at AT2R is 8.36.
